This experiment addresses T1, OAT3 (Homo sapiens, UniProt Q8TCC7).
T1 sequence (Q8TCC7 1-542): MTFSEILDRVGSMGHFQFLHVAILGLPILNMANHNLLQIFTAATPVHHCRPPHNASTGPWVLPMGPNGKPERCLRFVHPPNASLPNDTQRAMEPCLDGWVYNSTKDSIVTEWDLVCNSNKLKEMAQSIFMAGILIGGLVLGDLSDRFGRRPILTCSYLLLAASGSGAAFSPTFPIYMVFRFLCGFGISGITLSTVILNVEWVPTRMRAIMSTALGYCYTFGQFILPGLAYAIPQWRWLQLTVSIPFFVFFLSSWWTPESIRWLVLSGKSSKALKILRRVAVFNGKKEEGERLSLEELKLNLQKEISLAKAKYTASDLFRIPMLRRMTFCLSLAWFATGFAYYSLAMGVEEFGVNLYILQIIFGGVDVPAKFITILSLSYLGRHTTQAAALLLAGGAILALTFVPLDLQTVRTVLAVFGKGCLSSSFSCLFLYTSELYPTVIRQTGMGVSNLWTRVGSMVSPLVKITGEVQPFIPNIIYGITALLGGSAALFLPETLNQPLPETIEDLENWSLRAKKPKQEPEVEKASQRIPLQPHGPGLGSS
Description: In vitro drug transporter assay, OAT3. The experiment is classed as in vitro ADME. The settings on record: read-out: Inhibitor of: OAT3, IC50.

`CC(C)c1cc(Oc2c(Cl)cc(-n3nc(C#N)c(=O)[nH]c3=O)cc2Cl)n[nH]c1=O` [MGL-3196, 2-(3,5-dichloro-4-((5-isopropyl-6-oxo-1,6-dihydropyridazin-3-yl)oxy)phenyl)-3,5-dioxo-2,3,4,5-tetrahydro-1,2,4-triazine-6-carbonitrile]: the IC50 was 4.5 µM.

Usually IC50 stands for the concentration at which inhibition is half-maximal.

For the origin of these results see patent publication US11090308B2, “Methods of treating liver disorders or lipid disorders with a THR-beta agonist” (Madrigal Pharmaceuticals, Inc., priority 2016, dated 2021).
